Results as given in ChEMBL document CHEMBL3853344, “A druggable target for rescuing microRNA defects” (Bioorg Med Chem Lett, 2016).
Active and inactive are the calls of the source. No cut-off for these calls is given here.

Legend:
[1] = tested on: T1, Translin-associated protein X (Homo sapiens), Q99598 [E126A]; assay: Inhibition of wild type His-tagged translin/trax E126A mutant (unknown origin) coexpressed in Escherichia coli BL21 cells using RNase Alert as substrate at 30 uM incubated for 10 mins prior to substrate addition monitored over 60 mins by fluorescence assay
T1 sequence (whole entry): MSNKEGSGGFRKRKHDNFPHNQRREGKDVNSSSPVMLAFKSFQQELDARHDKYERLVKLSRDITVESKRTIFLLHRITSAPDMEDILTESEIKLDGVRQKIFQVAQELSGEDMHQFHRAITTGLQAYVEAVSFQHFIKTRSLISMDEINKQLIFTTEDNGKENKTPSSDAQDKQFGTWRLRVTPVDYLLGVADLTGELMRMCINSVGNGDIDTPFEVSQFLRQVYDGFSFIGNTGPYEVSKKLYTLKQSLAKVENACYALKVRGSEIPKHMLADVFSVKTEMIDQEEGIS

[2] = target: Translin-associated protein X (Homo sapiens, UniProt Q99598, E126A); assay: Inhibition of wild type His-tagged translin/trax E126A mutant (unknown origin) coexpressed in Escherichia coli BL21 cells assessed as reduction in pre-miRNA degradation by gel electrophoresis assay
[3] = tested on: T1, Translin-associated protein X (Homo sapiens), Q99598 [E126A]; assay: Inhibition of wild type His-tagged translin/trax E126A mutant (unknown origin) coexpressed in Escherichia coli BL21 cells assessed as increase in Dicer-mediated 5'-gamma32P-ATP labeled pre-miRNA processing at 5 uM after 15 mins by gel electrophoresis assay

Q: O=S(=O)(O)c1cc(N=C=S)ccc1/C=C/c1ccc(N=C=S)cc1S(=O)(=O)O was tested. Which inhibition [1] did it give?
A: 103%

Q: For O=C(OC[C@H]1O[C@@H](OC(=O)c2cc(O)c(O)c(OC(=O)c3cc(O)c(O)c(O)c3)c2)[C@H](OC(=O)c2cc(O)c(O)c(OC(=O)c3cc(O)c(O)c(O)c3)c2)[C@@H](OC(=O)c2cc(O)c(O)c(OC(=O)c3cc(O)c(O)c(O)c3)c2)[C@@H]1OC(=O)c1cc(O)c(O)c(OC(=O)c2cc(O)c(O)c(O)c2)c1)c1cc(O)c(O)c(OC(=O)c2cc(O)c(O)c(O)c2)c1, which inhibition [1] is on record?
A: 103%

Q: How did the inhibition [1] turn out when Oc1cc2c(cc1O)[C@@H]1c3ccc(O)c(O)c3OC[C@]1(O)C2 was run?
A: 63%

Q: With COc1cc(C)c2c(c1C=O)Oc1c(c(C)c(O)c3c1C(O)OC3=O)OC2=O (stereo unspecified) as the molecule, how does the inhibition [1] read?
A: 58%

Q: O=c1c(-c2cc(O)c(O)c(O)c2)coc2cc(O)c(O)c(O)c12 was tested. Which inhibition [1] did it give?
A: 78%

Q: For O=C(Oc1cc(O)cc2c1C[C@@H](OC(=O)c1cc(O)c(O)c(O)c1)[C@@H](c1cc(O)c(O)c(O)c1)O2)c1cc(O)c(O)c(O)c1, which inhibition [1] is on record?
A: 83%

Q: How did the inhibition [1] turn out when O=c1c(O)c(-c2ccc(O)c(O)c2)oc2cc(O)cc(O)c12 was run?
A: 58%

Q: Which inhibition [1] does the source give for O=C1C(O)=C(O)C(=O)C(O)=C1O here?
A: 66%

Q: How did the inhibition [1] turn out when CCCCC(CC)CNC(=N)NC(=N)NCCCCCCNC(=N)NC(=N)NCC(CC)CCCC (stereo unspecified) was run?
A: 103%

Q: For CCCCCCCCCCCCCCCC[n+]1ccccc1, which inhibition [1] is on record?
A: 56%

Q: O=C(O[C@@H]1Cc2c(O)cc(O)cc2O[C@@H]1c1cc(O)c(O)c(O)c1)c1cc(O)c(O)c(O)c1 was tested. Which inhibition [1] did it give?
A: 88%

Q: Oc1cc(O)c2c(c1)O[C@H](c1cc(O)c(O)c(O)c1)[C@H](O)C2 was tested. Which inhibition [1] did it give?
A: 68%

Q: For CCCCCCCCCCCCCCCCC(C(=O)O)C(O)(CC(=O)O)C(=O)O (stereo unspecified), which inhibition [1] is on record?
A: 58%

Q: For O=c1c(O)cc(C2Oc3cc(O)cc(O)c3CC2O)cc2cc(O)c(O)c(O)c12 (stereo unspecified), which inhibition [1] is on record?
A: 75%

Q: Which inhibition [1] does the source give for Cc1ccc(C(=O)Nc2ccc(S(=O)(=O)O)c3cc(S(=O)(=O)O)cc(S(=O)(=O)O)c23)cc1NC(=O)c1cccc(NC(=O)Nc2cccc(C(=O)Nc3cc(C(=O)Nc4ccc(S(=O)(=O)O)c5cc(S(=O)(=O)O)cc(S(=O)(=O)O)c45)ccc3C)c2)c1 here?
A: 61%

Q: Which inhibition [1] does the source give for O=c1oc2c(O)c(O)cc3c(=O)oc4c(O)c(O)cc1c4c23 [ELLAGIC ACID] here?
A: 94%

Q: What about the IC50 [2] of the same molecule?
A: 3.5 µM

Q: What about the inhibition [3] of the same molecule?
A: Active

Q: How did the inhibition [1] turn out when Oc1c(Cl)cc(Cl)c(Cl)c1Cc1c(O)c(Cl)cc(Cl)c1Cl was run?
A: 66%

Q: For Cc1cc(O)c(C=O)c2c1C(=O)Oc1c(C)c(O)c3c(c1O2)C(O)OC3=O (stereo unspecified), which inhibition [1] is on record?
A: 66%

Q: Which inhibition [1] does the source give for CC(C)(O/N=C(\C(=O)N[C@@H]1C(=O)N2C(C(=O)[O-])=C(C[n+]3ccccc3)CS[C@H]12)c1csc(N)n1)C(=O)O here?
A: 100%
